Measured values: PubChem BioAssay AID248 (DTP/NCI, 2004)
Where “and” joins values, the source holds several entries; their conditions need not be identical. Identical values can stand only once. Inconclusive results and toxic doses are left out. Rule as the data show it: active = T/C of 150% or more; inactive = T/C below 125%.

System: L1210 leukemia ip in BDF1 mice, survival T/C
Assay: NCI In Vivo Anticancer Drug Screen. Data for tumor model L1210 Leukemia (intraperitoneal) in B6D2F1 (BDF1) mice
Settings: endpoint: mean survival time, higher = longer survival
Procedure, shortened: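 Tumor cells were implanted, animals were treated, and survival was followed. The result divides the treated measurement by the vehicle-control measurement.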

[1] = dose: 25.0 mg/kg/injection, schedule: Q01DX009 (ip), vehicle: Klucel (hydroxypropylcellulose) (HPC)
[2] = dose: 50.0 mg/kg/injection, schedule: Q01DX009 (ip), vehicle: Klucel (hydroxypropylcellulose) (HPC)
[3] = dose: 100.0 mg/kg/injection, schedule: Q04DX003 (ip), vehicle: saline with Tween-80
[4] = dose: 200.0 mg/kg/injection, schedule: Q04DX003 (ip), vehicle: saline with Tween-80
[5] = dose: 400.0 mg/kg/injection, schedule: Q04DX003 (ip), vehicle: saline with Tween-80
[6] = dose: 50.0 mg/kg/injection, schedule: Q01DX001 (ip), vehicle: saline
[7] = dose: 100.0 mg/kg/injection, schedule: Q01DX001 (ip), vehicle: saline
[8] = dose: 200.0 mg/kg/injection, schedule: Q01DX001 (ip), vehicle: saline
[9] = dose: 400.0 mg/kg/injection, schedule: Q01DX001 (ip), vehicle: saline
[10] = dose: 100.0 mg/kg/injection, schedule: Q01DX001 (ip), vehicle: Klucel (hydroxypropylcellulose) (HPC)
[11] = dose: 200.0 mg/kg/injection, schedule: Q01DX001 (ip), vehicle: Klucel (hydroxypropylcellulose) (HPC)
[12] = dose: 400.0 mg/kg/injection, schedule: Q01DX001 (ip), vehicle: Klucel (hydroxypropylcellulose) (HPC)
[13] = dose: 100.0 mg/kg/injection, schedule: Q04DX003 (ip), vehicle: Klucel (hydroxypropylcellulose) (HPC)
[14] = dose: 200.0 mg/kg/injection, schedule: Q04DX003 (ip), vehicle: Klucel (hydroxypropylcellulose) (HPC)
[15] = dose: 400.0 mg/kg/injection, schedule: Q04DX003 (ip), vehicle: Klucel (hydroxypropylcellulose) (HPC)
[16] = dose: 100.0 mg/kg/injection, schedule: Q04DX002 (ip), vehicle: Klucel (hydroxypropylcellulose) (HPC)
[17] = dose: 100.0 mg/kg/injection, schedule: Q01DX009 (ip), vehicle: Klucel (hydroxypropylcellulose) (HPC)

Measured: T/C

CCN(CC)CN1C(=O)C(=O)c2ccccc21
inactive: dose: 100.0 mg/kg/injection, schedule: Q01DX001 (ip), vehicle: steriod suspending solution 92 % of control | dose: 200.0 mg/kg/injection, schedule: Q01DX001 (ip), vehicle: steriod suspending solution 108 % of control | dose: 400.0 mg/kg/injection, schedule: Q01DX001 (ip), vehicle: steriod suspending solution 114 % of control

NCC(O)(c1ccccc1)c1ccccc1
inactive: dose: 12.5 mg/kg/injection, schedule: Q01DX009 (ip), vehicle: Klucel (hydroxypropylcellulose) (HPC) 101 % of control | [1] 95 % of control | [2] 89 % of control | dose: 75.0 mg/kg/injection, schedule: Q01DX001 (ip), vehicle: other 100 % of control

CCOC(=O)C1=C(C)NC(C)=C(C(C)=O)C1c1ccnc2ccccc12 (stereo unspecified)
inactive: dose: 100.0 mg/kg/injection, schedule: Q01DX009 (ip), vehicle: saline with Tween-80 98 % of control | [3] 95 % of control | dose: 200.0 mg/kg/injection, schedule: Q01DX009 (ip), vehicle: saline with Tween-80 102 % of control | [4] 92 % of control | dose: 400.0 mg/kg/injection, schedule: Q01DX009 (ip), vehicle: saline with Tween-80 100 % of control | [5] 100 % of control

CCCCNC1=C(NC(=O)C(Cl)Cl)C(=O)c2ccccc2C1=O
inactive: dose: 2.5 mg/kg/injection, schedule: Q01DX009 (ip), vehicle: saline with Tween-80 103 % of control | dose: 5.0 mg/kg/injection, schedule: Q01DX009 (ip), vehicle: saline with Tween-80 101 % of control | dose: 5.0 mg/kg/injection, schedule: Q04DX003 (ip), vehicle: saline with Tween-80 100 % of control | dose: 10.0 mg/kg/injection, schedule: Q01DX009 (ip), vehicle: saline with Tween-80 98 % of control | dose: 10.0 mg/kg/injection, schedule: Q04DX003 (ip), vehicle: saline with Tween-80 97 % of control

CCN(CC)CCC(=O)OC
inactive: [6] 97 % of control | [7] 100 % of control | [8] 100 % of control | [9] 97 % of control

COC(=O)C1=CN(C(=O)OC)CCC1
inactive: [10] 95 % of control | [11] 88 % of control | [12] 92 % of control

CCCOC(=O)Nc1cccc(OC(=O)NC)c1
inactive: [3] 105 % of control | [4] 94 % of control | [5] 96 % of control

N#Cc1cn(-c2cccc(Cl)c2)c2ncccc12
inactive: dose: 25.0 mg/kg/injection, schedule: Q01DX001 (ip), vehicle: saline 103 % of control | [6] 100 % of control | [7] 103 % of control | [8] 87 % of control | [9] 91 % of control

C=CCc1cnc(N)[nH]c1=O
inactive: [3] 103 % of control | [4] 97 % of control | [5] 100 % of control

N#CCC[P+](CCC#N)(CCC#N)CCCCCC[P+](CCC#N)(CCC#N)CCC#N
inactive: [3] 98 % of control | [4] 93 % of control

COc1cccc(C)c1[N+](=O)[O-]
inactive: [13] 94 % of control | [14] 97 % of control | [15] 105 % of control

CCCCCCC(=O)N1CCCC(C)C1 (stereo unspecified)
inactive: [16] 98 % of control | dose: 200.0 mg/kg/injection, schedule: Q04DX002 (ip), vehicle: Klucel (hydroxypropylcellulose) (HPC) 106 % of control

CC(C)=NOCCCCON=C(C)C
inactive: dose: 100.0 mg/kg/injection, schedule: Q01DX001 (ip), vehicle: saline with Tween-80 101 % of control | dose: 100.0 mg/kg/injection, schedule: Q04DX002 (ip), vehicle: saline with Tween-80 95 % of control and 103 % of control | dose: 200.0 mg/kg/injection, schedule: Q01DX001 (ip), vehicle: saline with Tween-80 100 % of control | dose: 200.0 mg/kg/injection, schedule: Q04DX002 (ip), vehicle: saline with Tween-80 109 % of control and 88 % of control | dose: 400.0 mg/kg/injection, schedule: Q01DX001 (ip), vehicle: saline with Tween-80 92 % of control | dose: 400.0 mg/kg/injection, schedule: Q04DX002 (ip), vehicle: saline with Tween-80 103 % of control and 88 % of control

NC(=O)CC[n+]1ccccc1
inactive: dose: 12.5 mg/kg/injection, schedule: Q01DX009 (ip), vehicle: saline 97 % of control | dose: 25.0 mg/kg/injection, schedule: Q01DX009 (ip), vehicle: saline 93 % of control | dose: 50.0 mg/kg/injection, schedule: Q01DX009 (ip), vehicle: saline 96 % of control | dose: 50.0 mg/kg/injection, schedule: Q04DX003 (ip), vehicle: saline 105 % of control

N#CCCSP(=S)(Oc1ccccc1)Oc1ccccc1
inactive: dose: 100.0 mg/kg/injection, schedule: Q01DX009 (ip), vehicle: other 100 % of control | dose: 200.0 mg/kg/injection, schedule: Q01DX009 (ip), vehicle: other 100 % of control | dose: 400.0 mg/kg/injection, schedule: Q01DX009 (ip), vehicle: other 94 % of control

O=C(CCl)N(c1ccccc1)c1ccccc1
inactive: dose: 25.0 mg/kg/injection, schedule: Q04DX002 (ip), vehicle: Klucel (hydroxypropylcellulose) (HPC) 101 % of control and 107 % of control | dose: 50.0 mg/kg/injection, schedule: Q04DX002 (ip), vehicle: Klucel (hydroxypropylcellulose) (HPC) 103 % of control | [16] 95 % of control and 92 % of control

O=S(=O)(OCC(O)C1OCOC2COCOC21)c1ccccc1 (stereo unspecified)
inactive: [10] 112 % of control | [11] 93 % of control | [12] 97 % of control

[N-]=[N+]=C1C(=O)NN=C1c1ccccc1
inactive: dose: 20.0 mg/kg/injection, schedule: Q04DX003 (ip), vehicle: Klucel (hydroxypropylcellulose) (HPC) 92 % of control | [1] 98 % of control | dose: 40.0 mg/kg/injection, schedule: Q04DX003 (ip), vehicle: Klucel (hydroxypropylcellulose) (HPC) 101 % of control | [2] 96 % of control and 108 % of control | dose: 80.0 mg/kg/injection, schedule: Q04DX003 (ip), vehicle: Klucel (hydroxypropylcellulose) (HPC) 97 % of control | [17] 101 % of control and 102 % of control | [13] 98 % of control and 101 % of control and 106 % of control | [14] 98 % of control | [15] 110 % of control

NCc1nc(C(=O)O)cs1
inactive: [7] 110 % of control | dose: 100.0 mg/kg/injection, schedule: Q01DX009 (ip), vehicle: saline 91 % of control | dose: 100.0 mg/kg/injection, schedule: Q04DX003 (ip), vehicle: saline 116 % of control | [8] 102 % of control | dose: 200.0 mg/kg/injection, schedule: Q01DX009 (ip), vehicle: saline 87 % of control | dose: 200.0 mg/kg/injection, schedule: Q04DX003 (ip), vehicle: saline 112 % of control | [9] 112 % of control | dose: 400.0 mg/kg/injection, schedule: Q01DX009 (ip), vehicle: saline 86 % of control | dose: 400.0 mg/kg/injection, schedule: Q04DX003 (ip), vehicle: saline 96 % of control

CCCCCCCCCCCCCCCCCCNC(=S)Nc1ccccc1
inactive: [3] 95 % of control | [4] 90 % of control | [5] 92 % of control

C(=N\Nc1nc2ccccc2s1)/c1ccccc1
inactive: [17] 95 % of control | dose: 200.0 mg/kg/injection, schedule: Q01DX009 (ip), vehicle: Klucel (hydroxypropylcellulose) (HPC) 102 % of control | dose: 400.0 mg/kg/injection, schedule: Q01DX009 (ip), vehicle: Klucel (hydroxypropylcellulose) (HPC) 100 % of control
